Patent US7253176B1, “Immunosuppressive effects of 8-substituted xanthine derivatives” (K.U. Leuven Research & Development, priority 2000, dated 2007)
pIC50: −log10 of the molar value.

Experiments:
[1] = tested on: Peripheral blood mononuclear cells (PBMC); assay: Mixed lymphocyte reaction (MLR), [3H]-thymidine incorporation; type: cell-based, human
Description: (§1) Various models may be used for testing an immunosuppressive effect. In vivo, for example, different transplantation models are available. They are strongly influenced by different immunogenicities, depending on the donor and recipient species used and depending on the nature of the transplanted organ. The survival time of transplanted organs can thus be used to measure the suppression of the immune response. In vitro, there exist also various models. The most used are lymphocyte activation tests. Usually activation is measured via lymphocyte proliferation. Inhibition of proliferation thus always means immunosuppression under the experimental conditions applied. There exist different stimuli for lymphocyte activation: • coculture of lymphocytes of […] (MLR=mixed lymphocyte reaction): lymphocytes expressing different minor and major antigens of the HLA-DR type (=allogens) activate each other non-specifically. • CD3 assay: here there is an activation of the T-lymphocytes via an exogenously added antibody (OKT3). This antibody reacts against the CD3 molecule located on the lymphocyte membrane. This molecule has a […]. […] This molecule is also located on the lymphocyte membrane, and delivers strong costimulatory signals. […] Reagents
Mixed Lymphocyte Reaction
Peripheral blood mononuclear cells (PBMC) were isolated from heparinized peripheral blood by density gradient centrifugation over Lymphoprep (Nycomed, Maorstua, Norway). Allogeneic PBMC or EBV-transformed human B cells [RPMI1788 (ATCC name CCL156)] which strongly express B7-1 and B7-2 were used as stimulator calls after irradiation with 30 Gy. MLR was performed in triplicate wells. After 5 days incubation at 37° C., 1 μCi [^3H]-thymidine was added to each cup. After a further 16 hours incubation, cells were harvested and counted in a β-counter.
The percent suppression of proliferation by drugs was counted using the formula: […]

Highly purified T cells [2] = assay: T cell proliferation induced by anti-CD28 mAb+PMA (BrdU); type: cell-based, human; details: read-out: IC50 aCD28
Description: as §1
T cells were purified by removing non-T cells. Briefly, monocytes were removed by cold agglutination. The resulting lymphoid cells were further purified by a cell enrichment immunocolumn [Cellect Human T (Biotex, Edmonton, Alberta, Canada)] by a process of negative selection. More than 95% of the B cells were removed with this procedure. After depletion, the resulting T cell preparation was highly purified explaining these cells could not be activated by PHA or rIL-2 alone at concentrations capable of stimulating RBMC prior to deletion.
(§2) Measurements of T Cell Proliferations Induced by Anti-CD3 mAB+PMA or Anti-CD28 mAb+PMA
(§3) Highly purified T cells (10^6/ml) were stimulated by immobilized anti-CD3 or anti-CD28 mAb in the presence of PMA. Anti-CD3 mAb (CLB-CD3; CLB, Amsterdam, The Netherlands) were fixed on the 96-microwell plates by incubating the wells with 50 μl of mAb solution […] 50 μl (1/650 dilution in culture medium) was added directly to the wells. Further, 20 μl PMA (Sigma, St. Louis, Mo., USA) solution (final concentration: 0.5 ng/ml) was added. Subsequently, 20 μl of immunosuppressants were added by serial dilution in triplicate wells. Finally 100 μl of the T cell suspension (10^6/ml) was added. After 48-hour incubation at 37° C. in 5% CO2 20 μl BrdU (100 μM solution) (Cell Proliferation Elisa, Boehringer-Mannheim Belgium) was added to each well. After a further overnight incubation the T cell proliferation was measured using a calorimetric immunoassay for qualification of cell proliferation based on measurements of the incorporation of BrdU during DNA synthesis. The optical density (OD) was measured by a Behring EL311 place reader at 450 nm (reference wavelength: […]). The percent suppression of proliferation by drugs was counted using the formula: […]

[3] = tested on: Con A induced proliferation of lymphocytes; assay: Whole Blood Assay (WBA): Con A induced lymphoproliferation in blood of rats given test substances in vivo; set-up: species or system R/A rats; details: orally 40 mg/kg/d 2x/d 2d, blood taken after 8 h, Con A 15 μg/ml
Method: [formula] […] Whole Blood Assay (WBA): WBA is a lymphoproliferation assay performed in vitro but using lymphocytes present in whole blood, taken from animals that were previously given test substances in vivo.
Rats: inbred, male 6- to 8-weeks old R/A rats weighing ±200 g were used as recipients.
Drug administration: xanthine derivatives were dissolved in DMSO and further diluted with PBS. Products were given orally in different concentrations 2 times a day for 2 days. To perform the experiments, 6–8 hours after the last administration 1 ml of blood is taken by heart puncture after ether anesthesia and anticoagulated with 100 U/ml of preservative free heparine. […]
Heparinized whole blood was diluted (1:25) with complete RPMI medium and stimulated with 15 μg/ml of concanavalin A (Con A) in triplicate wells in 96-well microtiter plates at 37° C. and 5% CO2. After 96-h culture, proliferation was determined by measuring the incorporation (cpm) of [^3H]-thymidine.
The Con A induced proliferation of lymphocytes taken from rats receiving the test substances (exp) was compared with that from rats receiving only the solvent (con). The percent suppression was calculated as follows: […]

Highly purified T cells [4] = assay: T cell proliferation induced by anti-CD3 mAb+PMA (BrdU); type: cell-based, human; details: read-out: IC50 aCD3
Description: T cells were purified by removing non-T cells. Briefly, monocytes were removed by cold agglutination. The resulting lymphoid cells were further purified by a cell enrichment immunocolumn [Cellect Human T (Biotex, Edmonton, Alberta, Canada)] by a process of negative selection.
as §2, §3

[5] = Homo sapiens, PBMC, lowest concentration giving 50% suppression of the MLR
[6] = Homo sapiens, T-cell, anti-CD28 mAb+PMA pathway
[7] = Homo sapiens, T-cell, anti-CD3 mAb+PMA pathway
[8] = Homo sapiens, T-cell, immunosuppressants for comparison, anti-CD28 mAb+PMA
[9] = Homo sapiens, T-cell, immunosuppressants for comparison, anti-CD3 mAb+PMA

| Compound | melting point | pIC50 [1, 5] | pIC50 (Highly purified T cells [2]; [6]) | pIC50 (Highly purified T cells [4]; [7]) | further results |
| --- | --- | --- | --- | --- | --- |
| 1,3-dipropyl-8-[4(diethylamino(propyl(amino-(sulfonyl))))fenyl]xanthine [Compound 11] | – | – | – | – | pIC50 ([1]; lowest concentration giving 50% suppression of the MLR): 4.60; pIC50 (Highly purified T cells [2]; anti-CD28 mAb+PMA pathway): 4.26; % suppresion [3]: 33%; pIC50 (Highly purified T cells [4]; anti-CD3 mAb+PMA pathway): 4.40 |
| Cn1cnc2c1c(=O)n(CCCCC(=O)O)c(=O)n2C [Compound 22, 1-(4-Carboxybutyl)-3,7-dimethylxanthine] | 195 °C | < 3.70 | < 3.70 | < 3.70 | – |
| Cn1c(=O)c2c(ncn2C)n(CC(C)(C)C)c1=O [Compound 68, 1,7-dimethyl-3-((tertbutyl)methyl)xanthine] | 158 °C | 4.12 | 3.92 | 3.89 | – |
| Cc1oncc1C(=O)Nc1ccc(C(F)(F)F)cc1 [Leflunomide, reference compound] | – | 4.60 | 4.70 | 4.82 | – |
| COc1c(C)c2c(c(O)c1C/C=C(\C)CCC(=O)O)C(=O)OC2 [Moferil, Mycophenolic acid, reference compound] | – | > 6.30 | – | – | pIC50 (Highly purified T cells [2]; [8]): 7.30; pIC50 (Highly purified T cells [4]; [9]): 7.30 |
| CO[C@H]1C[C@@H]2CC[C@@H](C)[C@@](O)(O2)C(=O)C(=O)N2CCCC[C@H]2C(=O)O[C@H]([C@H](C)C[C@@H]2CC[C@@H](O)[C@H](OC)C2)CC(=O)[C@H](C)/C=C(\C)[C@@H](O)[C@@H](OC)C(=O)[C@H](C)C[C@H](C)/C=C/C=C/C=C/1C [Rapamycin, reference compound] | – | – | – | – | pIC50 ([1]; Homo sapiens, PBMC, immunosuppressants for comparison): 9.00; pIC50 (Highly purified T cells [2]; [8]): 9.00; pIC50 (Highly purified T cells [4]; [9]): 9.00 |

The next lines start with results.

| melting point | Compound | pIC50 [1, 5] | pIC50 (Highly purified T cells [2]; [6]) | pIC50 (Highly purified T cells [4]; [7]) | further results |
| --- | --- | --- | --- | --- | --- |
| 177 °C | CC#Cn1c(=O)c2c(ncn2C#CC)n(C)c1=O [Compound 2, 1,7-dipropynyl-3-methylxanthine] | – | – | – | – |
| 172 °C | CC#Cn1c(=O)c2c(ncn2C)n(C#CC)c1=O [Compound 4, 1,3-dipropynyl-7-methylxanthine] | < 3.70 | < 3.70 | 4.05 | – |
| 155 °C | CC#Cn1c(=O)c2c(ncn2C#CC)n(C#CC)c1=O [Compound 5, 1,3,7-tripropynylxanthine] | < 3.70 | < 3.70 | 4.30 | – |
